Here are results for 20 sequences from patent publication US11945881B2, “Neoantigens expressed in ovarian cancer and their uses” (Janssen Biotech, Inc., priority 2020, dated 2024).

For one assay, the system named is CD4+ T cells. As to the kind of experiment: exogenous autologous normal donor restimulation assay, TNFα/IFNγ double positive CD4+ T cells by flow cytometry. Format: cell-based, human. The note with it: donor independent, peptide pool 10 μg/mL, healthy donors; for Fold change (CD4+) vs. DMSO: maximum CD4+ T-cell response (TNFα and IFNγ); for Frequency (TNFα + IFNγ + CD4 T cells): maximum CD4+ T-cell response. On the procedure: (§1) The immunogenicity of neoantigens was assessed using the exogenous autologous normal donor restimulation assay. […] The lyophilized peptides were solubilized in 100% DMSO.
(§2) CD1c+ Dendritic Cells (CD1c+DC) isolated from human healthy PBMCs were thawed using media (IMDM (Gibco) supplemented with glutamine, HEPES, 5% human serum (Sigma), and 1× Pen-Strep). DC cells were resuspended in media supplemented with IL-4 (Peprotech, 20 ng/mL) and GM-CSF (Gibco, 20 ng/mL), plated in 6 well microplates, and rested overnight at 37° C. and 5% CO2 incubator. The following day, DC cells were counted and plated in a 96 well round bottom microplate at a concentration of 30,000 viable cells per well. Lyophilized neoantigen peptide pools (15-mer peptides with 8-mer overlapping peptide sequences) were solubilized in 100% DMSO with a stock concentration of 20 mg/mL Neoantigen peptides pools were added to DCs for a final concentration of 10 μg/mL and rested for 2 hours at 37° C. and 5% CO2 incubator. CEF Peptide Pool “Plus” (Cellular Technologies, Ltd.) was utilized as a positive control (each viral peptide at a final concentration of 4 ug/ml) and DMSO at the same final concentration (0.05%) as the experimental peptides was utilized as a negative control. After 2 hours, DC cells were irradiated with 50 gray of ionizing radiation. Autologous CD3+ Pan-T cells isolated from human normal PBMCs were thawed using media. Following irradiation, autologous Pan-T cells were added to the irradiated DCs at 300,000 viable cells per well. Human IL-15 (Peprotech) was added to all wells at final concentration of 10 ng/ml. Plates were incubated at 37° C. and 5% CO2 incubator for a total of 12 days. Media was refreshed every 2-3 days with IL-15 (R&D System, 10 ng/mL final concentration) and IL-2 (R&D systems, 10 IU/mL final concentration).
(§3) On Day 11, cells were re-stimulated with identical experimental peptide pools or controls, at same concentration as peptide stimulation on Day 1. Protein Inhibitor Cocktail (eBioscience) was added to every well and plate was incubated overnight for 14-16 hours at 37° C. and 5% CO2 incubator. On Day 12, cells were stained for surface and intracellular flow cytometry analysis. The cells were washed with PBS and stained with Live/Dead Fixable Aqua Dead Cell stain (Thermo-Fisher). Following the live/dead stain, cells were blocked using Biotin-Fre Fc Receptor Blocker (Accurate Chemical & Scientific Corp). Extracellular cellular flow panel ([…] per well in 50 μL) consisted of CD3 PerCP-Cy5.5 (Biolegend), CD4 BV421 (Biolegend), and CD8 APC-Cy7 (Biolegend). After extracellular staining, cells were fixed and permeabilized using Foxp3/Transcription Factor Staining Buffer Set (eBioscience) and stained for intracellular proteins (1:50 dilution) using TNFα FITC (R&D Systems) and IFNγ BV785 (Biolegend). Cells were washed and resuspended in stain buffer, analyzed, and recorded in a BD Celesta flow cytometer.
(§4) Flow cytometry analysis was conducted on FlowJo v10.6 software. Cells were gated on live, singlet, CD3+, CD4+ and CD8+ T cells. The CD8+ and CD4+ T cells were analyzed for TNFα and IFNγ expression.
(§5) The immunogenicity of neoantigens was first investigated in 9-16 healthy donors.

The next assay has as its system CD8+ T cells. The assay can be described thus: exogenous autologous normal donor restimulation assay, TNFα/IFNγ double positive CD8+ T cells by flow cytometry. Format: cell-based, human. The note with it: for Fold change (CD8+) vs. DMSO: maximum CD8+ T-cell response (TNFα and IFNγ); for Fold change (CD8+) vs. DMSO / Frequency (TNFα + IFNγ + CD8 T cells): donor independent, peptide pool 10 μg/mL, healthy donors; for Frequency (TNFα + IFNγ + CD8 T cells): maximum CD8+ T-cell response; for Immunogenic (yes/no): positive if CD8+ and/or CD4+ double positive TNFα/IFNγ frequency >=3-fold over DMSO and at least 0.01%. On the procedure: as §1, §2, §3, §4, §5

As to “QTDFAYDSGKRLGWGRVACDQVFS [AS3, neoantigen, alternative splicing of ETV4]”, in the assay with CD4+ T cells, the “Fold change (CD4+) vs. DMSO” value is 7.31 fold and the “Frequency (TNFα + IFNγ + CD4 T cells)” value came out at 0.1%. Moreover, in the assay on CD8+ T cells, the “Fold change (CD8+) vs. DMSO” value is 133.13 fold, the “Frequency (TNFα + IFNγ + CD8 T cells)” value is recorded as 0.43% and the “Immunogenic (yes/no)” value is “Yes”.
As for “QTQEETDRDRGSWSCAVA [AS64, neoantigen, alternative splicing of IQGAP3]”, in the assay on CD4+ T cells, the “Fold change (CD4+) vs. DMSO” value is given as 5.43 fold and the “Frequency (TNFα + IFNγ + CD4 T cells)” value was 0.024%. Besides, in the assay on CD8+ T cells, the “Fold change (CD8+) vs. DMSO” value turned out to be 33.44 fold, the “Frequency (TNFα + IFNγ + CD8 T cells)” value turned out to be 0.21% and the “Immunogenic (yes/no)” value is “Yes”.
For the sequence “VEDEEKKEPDGAQRHLVDIGGSHQTSHAEKFLFLLCPPVV [AS90, neoantigen, alternative splicing of ACIN1]”, in the assay on CD4+ T cells, the “Fold change (CD4+) vs. DMSO” value was 4.93 fold and the “Frequency (TNFα + IFNγ + CD4 T cells)” value amounted to 0.044%. In addition, in the assay with CD8+ T cells, the “Fold change (CD8+) vs. DMSO” value is listed as 28.95 fold, the “Frequency (TNFα + IFNγ + CD8 T cells)” value stood at 0.1% and the “Immunogenic (yes/no)” value is listed as “Yes”.
Consider “AAEQAGCMQCLI [FUS8, neoantigen, gene fusion TYSND1->AIFM2]”, for which, in the assay with CD4+ T cells, the “Fold change (CD4+) vs. DMSO” value was determined as 5.93 fold and the “Frequency (TNFα + IFNγ + CD4 T cells)” value is recorded as 0.029%. In the assay on CD8+ T cells, the “Fold change (CD8+) vs. DMSO” value came out at 6.27 fold, the “Frequency (TNFα + IFNγ + CD8 T cells)” value is on record as 0.12% and the “Immunogenic (yes/no)” value is listed as “yes”.
On the same counts, the results for “QATPSSILCFRLACLWLLRKGLLDLTW [AS15, neoantigen, alternative splicing of IMPG2]” are 11.36 fold, 0.023%, 48.05 fold, 0.08% and “Yes”.
Take “VEDEEKKEGSMLVAPTSPPSLEAGTHFIHLTGTTVSAGVPEEMPATTLRREVF [AS93, neoantigen, alternative splicing of ACIN1]”: in the assay on CD4+ T cells, the “Fold change (CD4+) vs. DMSO” value is on record as 253.72 fold and the “Frequency (TNFα + IFNγ + CD4 T cells)” value is reported as 1.62%. For the same sequence, in the assay with CD8+ T cells, the “Fold change (CD8+) vs. DMSO” value came to 459.18 fold, the “Frequency (TNFα + IFNγ + CD8 T cells)” value is 0.9% and the “Immunogenic (yes/no)” value was “Yes”.
For “APILAAIGIGRLLCMDKIPATASLTP [FUS3, neoantigen, gene fusion PTH2R->LOC101927960]” the same measures were 5.02 fold, 0.025%, 158.8 fold, 0.74% and “yes”.
As to “HFSRLCGPVSHLSAHLAHLR [AS119, neoantigen, alternative splicing of SMAD6]”, in the assay with CD4+ T cells, the “Fold change (CD4+) vs. DMSO” value amounted to 4.17 fold and the “Frequency (TNFα + IFNγ + CD4 T cells)” value is recorded as 0.027%. Further, in the assay with CD8+ T cells, the “Fold change (CD8+) vs. DMSO” value was determined as 1.32 fold, the “Frequency (TNFα + IFNγ + CD8 T cells)” value stood at 0.037% and the “Immunogenic (yes/no)” value is recorded as “Yes”.
Turning to “RYWTPATSSEYSNL [AS143, neoantigen, alternative splicing of MUC16]”, in the assay with CD4+ T cells, the “Fold change (CD4+) vs. DMSO” value is 3.6 fold and the “Frequency (TNFα + IFNγ + CD4 T cells)” value worked out at 0.033%. For the same sequence, in the assay with CD8+ T cells, the “Fold change (CD8+) vs. DMSO” value turned out to be 12.1 fold, the “Frequency (TNFα + IFNγ + CD8 T cells)” value is on record as 0.13% and the “Immunogenic (yes/no)” value is reported as “Yes”.
With “GTMEVKSKKKQTTVPLVQTR [AS67, neoantigen, alternative splicing of PARD6B]”, in the assay with CD4+ T cells, the “Fold change (CD4+) vs. DMSO” value is 3.15 fold and the “Frequency (TNFα + IFNγ + CD4 T cells)” value worked out at 0.028%. In addition, in the assay with CD8+ T cells, the “Fold change (CD8+) vs. DMSO” value turned out to be 6.36 fold, the “Frequency (TNFα + IFNγ + CD8 T cells)” value amounted to 0.17% and the “Immunogenic (yes/no)” value is “Yes”.
For the sequence “ALTVVPPGLRLDRVLLHLW [FUS27, neoantigen, gene fusion C17orf99->SYNGR2]”, in the assay on CD4+ T cells, the “Fold change (CD4+) vs. DMSO” value is listed as 10.37 fold and the “Frequency (TNFα + IFNγ + CD4 T cells)” value is reported as 0.021%. For the same sequence, in the assay with CD8+ T cells, the “Fold change (CD8+) vs. DMSO” value was determined as 19.77 fold, the “Frequency (TNFα + IFNγ + CD8 T cells)” value was 0.43% and the “Immunogenic (yes/no)” value is “Yes”.
For “NANSRLPEACEK [AS100, neoantigen, alternative splicing of FRYL]” the same measures were 6.02 fold, 0.039%, 63.36 fold, 0.099% and “Yes”.
“KLCSRQRPDCQPVDSRHGPILSIQHLISALHTGDG [AS123, neoantigen, alternative splicing of VWA2]”: in the assay on CD4+ T cells, the “Fold change (CD4+) vs. DMSO” value amounted to 3.7 fold and the “Frequency (TNFα + IFNγ + CD4 T cells)” value amounted to 0.024%. Moreover, in the assay with CD8+ T cells, the “Fold change (CD8+) vs. DMSO” value was 115.04 fold, the “Frequency (TNFα + IFNγ + CD8 T cells)” value turned out to be 1.09% and the “Immunogenic (yes/no)” value is “yes”.
For “YGNDQWLQMRKWRHRE [FUS13, neoantigen, gene fusion MFGE8->HAPLN3]” the same measures were 3.35 fold, 0.12%, 5.12 fold, 0.11% and “yes”.
“HFECYHCEIRIPRKSNGIRGFLLTWRRDGNTSTSVQQTTSSL [FUS11, neoantigen, gene fusion AJUBA->HAUS4]”: in the assay with CD4+ T cells, the “Fold change (CD4+) vs. DMSO” value was 39.13 fold and the “Frequency (TNFα + IFNγ + CD4 T cells)” value was 0.14%. Also, in the assay with CD8+ T cells, the “Fold change (CD8+) vs. DMSO” value is 3.3 fold, the “Frequency (TNFα + IFNγ + CD8 T cells)” value is reported as 0.071% and the “Immunogenic (yes/no)” value is “yes”.
Consider “SRRLKLAQGRLRGLERLHSPQPFLQPMLPQGAQGPCKAPGQGQLLGGRREPDPS [AS14, neoantigen, alternative splicing of FOXH1]”, for which, in the assay on CD4+ T cells, the “Fold change (CD4+) vs. DMSO” value amounted to 59.26 fold and the “Frequency (TNFα + IFNγ + CD4 T cells)” value is 0.12%. Further, in the assay with CD8+ T cells, the “Fold change (CD8+) vs. DMSO” value came out at 257.47 fold, the “Frequency (TNFα + IFNγ + CD8 T cells)” value was determined as 5.6% and the “Immunogenic (yes/no)” value is “Yes”.
For the sequence “TKKRKQSELQQP [AS95, neoantigen, alternative splicing of DMXL2]”, in the assay on CD4+ T cells, the “Fold change (CD4+) vs. DMSO” value was 2.91 fold and the “Frequency (TNFα + IFNγ + CD4 T cells)” value came to 0.026%. In the assay on CD8+ T cells, the “Fold change (CD8+) vs. DMSO” value is recorded as 2.54 fold, the “Frequency (TNFα + IFNγ + CD8 T cells)” value amounted to 0.03% and the “Immunogenic (yes/no)” value was “No”.
“IPPHLQWESTRQTEWISVREFHLESSLYP [AS61, neoantigen, alternative splicing of IGF2BP3]”: in the assay with CD4+ T cells, the “Fold change (CD4+) vs. DMSO” value is on record as 4.26 fold and the “Frequency (TNFα + IFNγ + CD4 T cells)” value is 0.038%. Also, in the assay on CD8+ T cells, the “Fold change (CD8+) vs. DMSO” value is listed as 4.86 fold, the “Frequency (TNFα + IFNγ + CD8 T cells)” value was found to be 0.13% and the “Immunogenic (yes/no)” value was “Yes”.
For “SMMEGVIQLSFKAIVCLLSCLDLLSLFRVVRHLS [AS94, neoantigen, alternative splicing of AFDN]” the same measures were 62.76 fold, 0.098%, 1080.99 fold, 9.61% and “Yes”.
On to “LASGVPPPGLPWGPGPHLG [AS60, neoantigen, alternative splicing of HMCN2]”, for which, in the assay with CD4+ T cells, the “Fold change (CD4+) vs. DMSO” value stood at 4.3 fold and the “Frequency (TNFα + IFNγ + CD4 T cells)” value was 0.019%. Further, in the assay on CD8+ T cells, the “Fold change (CD8+) vs. DMSO” value stood at 265.02 fold, the “Frequency (TNFα + IFNγ + CD8 T cells)” value is reported as 1.9% and the “Immunogenic (yes/no)” value was “Yes”.
